Assay results as given in US20220072165A1, “RADIODRUG FOR DIAGNOSTIC/THERAPEUTIC USE IN NUCLEAR MEDICINE AND RADIO-GUIDED MEDICINE” (UNIVERSITÀ DEGLI STUDI DI ROMA "LA SAPIENZA", priority 2019, published 2022).

Assays:
[1] = stability in human serum (release of ^90Y^3+ to serum proteins); assay type: in vitro ADME; conditions: 32 MBq per 16 ml, T=37° C., 14 days
Procedure: The stability in serum of the […] chelate of Formula II (1 or MC4324) has been evaluated by measuring the release of the metal cation ^90Y^3+ from the chelate to the serum proteins during 14 days in which it has been kept in physiological conditions. Briefly, the ^90Y-DOTA-BG chelate of Formula II (1 or MC4324) has been incubated with human serum (32 MBq for 16 ml of serum) at T=37° C. At regular time intervals serum aliquots have been collected and, by using centrifuge filter tubes (Amicon® Ultra-4 3K, Merck Millipore) and by centrifuging at 5500 g, the serum proteins have been separated from the non-protein fraction of serum and the radioactivity of both fractions has been measured with a liquid scintillation β counter (scintillation liquid used is Perkin Elmer ULTIMA GOLD).
The stability in serum of the chelates of Formula III (10a, MC4801) and IV (10b, MC4803) has been evaluated by measuring the release of the metal cation ^90Y^3+ from the chelates to the serum proteins during 14 days in which they have been kept in physiological conditions. Briefly, the chelates of Formula III (10a, MC4801) and IV (10b, MC4803) have been incubated with human serum (32 MBq per 16 ml of serum) at T=37° C. At regular time intervals serum aliquots have been collected and, by using centrifuge filter tubes (Amicon® Ultra-4 3K, Merck Millipore) and by centrifuging at 5500 g, the serum proteins have been separated from the non-protein fraction of serum and the radioactivity of both fractions has been measured with a liquid scintillation β counter (scintillation liquid used is Perkin Elmer ULTIMA GOLD).

[2] = molecular target: T1, norepinephrine transporter (NET) (Homo sapiens, UniProt P23975); test: competition with ^3H-NE for uptake by SK-N-SH cells; assay type: cell-based; conditions: for inhibition of the uptake/internalization of ^3H-NE (competition with ^3H-NE): 1 hour, tested up to 100 μM; for substrate of NET compared with MIBG: competition with ^3H-NE
T1 construct: human neuroblastoma cells SK-N-SH, which are known to express the transporter NET in large quantity; host or cells: SK-N-SH human neuroblastoma cells
T1 sequence (P23975 whole entry): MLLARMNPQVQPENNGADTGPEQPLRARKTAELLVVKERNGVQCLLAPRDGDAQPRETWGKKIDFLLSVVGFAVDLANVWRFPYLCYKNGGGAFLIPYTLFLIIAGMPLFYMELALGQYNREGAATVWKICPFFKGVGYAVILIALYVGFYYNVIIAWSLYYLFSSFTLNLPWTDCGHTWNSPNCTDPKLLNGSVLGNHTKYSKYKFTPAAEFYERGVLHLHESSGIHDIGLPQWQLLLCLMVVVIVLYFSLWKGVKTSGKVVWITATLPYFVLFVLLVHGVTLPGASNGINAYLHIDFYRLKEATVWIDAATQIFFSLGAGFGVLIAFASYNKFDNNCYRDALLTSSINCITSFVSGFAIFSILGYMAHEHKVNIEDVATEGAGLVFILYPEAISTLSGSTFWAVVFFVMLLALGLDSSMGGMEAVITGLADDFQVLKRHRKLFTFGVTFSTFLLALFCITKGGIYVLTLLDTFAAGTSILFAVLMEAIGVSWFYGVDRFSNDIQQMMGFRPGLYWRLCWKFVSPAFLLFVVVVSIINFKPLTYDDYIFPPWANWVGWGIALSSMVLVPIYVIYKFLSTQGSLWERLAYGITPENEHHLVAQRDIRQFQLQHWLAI
Text: The ability of the ^89Y-DOTA-BG chelate (1a, MC4324) (non-radioactive analogue of the compound of Formula II, 1 or MC4324) to act as substrate of NET has been evaluated in competition experiments with the tritiated endogenous substrate ^3H-NE for the uptake by the human neuroblastoma cells SK-N-SH, which are known to express the transporter NET in large quantity. […] This provides the ability to prepare radio-marked versions of the chelate of Formula II (or MC4324) with an even low specific activity, because the absence of competition for NET between the chelate (MC4324) and the free binder 9 (MC4325) doesn't compromise the bonding ability to NET of the chelate (compound of Formula II, MC4324) also in the presence of an excess of free binder 9 (MC4325).
FIG. 3 depicts the competition of the ^89Y-DOTA-BG chelate (1a, MC4324) (non-radioactive analogue of the compound of Formula II, 1 or MC4324) and of free binder 9 (MC4325) with ^3H-NE (50 nM, 1 hour incubation, T=37° C.) for the uptake by the SK-N-SH cells. ^1H-NE a 20 μM and MIBG @ 2 μM have been used as positive controls.
^3H-NE has been purchased from Perkin Elmer. To measure the initial cell uptake speeds of ^3H-NE, the cells have been grown for 16 hours in the presence of serum only, then incubated with binder medium (EMEM containing 0.2% BSA and 20 mM Hepes, pH 7.5) for 10 minutes by heating in a water bath at 37° C. The bond has been initiated by adding 0.5 ml per well of 50 nM ^3H-NE to the binder medium for […], the plates have then been placed on ice and washed three times with frozen PBS. Thus, the cell monolayers have been dried and lysed with […]. The cpm (“counts” per minute) have been determined separately in the different wells in triple for each time. By cpm is meant “counts” or “hits” per minute, i.e. the nuclear disintegrations that occur in one minute. These disintegrations come from inside the cells after these have been, following the order below: 1) incubated with ^3H-NE, 2) washed with PBS to eliminate ^3H-NE remained outside the cells, 3) lysed for better detecting the radioactivity due to the internalized ^3H-NE only.
The background bond has been determined in parallel in a fourth well containing a 400 times molar excess of non-marked ^1H-NE (“cold”). For the competition study, the cells have been plated as above, and thus incubated for 1 hour with 50 nM ^3H-NE in binder medium in the absence and presence of the ^89Y-DOTA-BG chelate (compound of Formula II, 1a or MC4324) (non-radioactive analogue of the compound of Formula II, 1 or MC4324) and free binder 9 (MC4325) at different concentrations. The radioactivity has been determined separately in the wells in triple for each concentration value. The uptake of ^3H-NE has been expressed as total radioactivity percentage normalized for mg of protein.
The ability of the “cold” chelates of Formula III (10a′, MC4801) and IV (10b′, MC4803) to act as substrates of NET has been evaluated in competition experiments with the tritiated endogenous substrate ^3H-NE for the uptake by the human neuroblastoma cells SK-N-SH, which are known to express the transporter NET in large quantity. […] Therefore also in this case it is possible to prepare radio-marked versions of the chelates of Formula III (10a, MC4801) and IV (10b, MC4803) with low specific activity, as the absence of competition for NET between the chelates 10a,b (MC4801 and MC4803) and the respective free binders 13a,b (MC4802 and MC4804) doesn't compromise the bonding ability to NET of the chelates [compounds of Formula III (10a, MC4801) and IV (10b, MC4803)] also in the presence of an excess of free binders 13a,b (MC4802 and MC4804). […]

[3] = system: human neuroblastoma line SK-N-SH; test: cytotoxic effects in SK-N-SH cells; assay type: cell-based; conditions: up to the maximum concentration tested (100 μM)
[4] = chemical stability in physiological conditions (PBS buffer, 37° C., analytical HPLC); assay type: physicochemical; conditions: for Area 1 (chromatographic peak of compound 1a) / Area (1 + 2) (peaks of compound 1a and impurity 2): PBS, 37° C.
Procedure: The stability of the chelate ^89Y-DOTA-BG (1a, MC4324) (non-radioactive analogue of the compound of Formula II, 1 or MC4324) in physiological conditions has been evaluated by analysis with analytical HPLC (Shimadzu Nexera chromatograph equipped with a SPD-M20A PDA detector; Hypersil ODS GOLD 250×4.6 mm column; eluent: MeOH/H2O 5:95 v/v+0.02% TFA, flow: 1.0 ml/min; UV detection 214 nm) repeated at regular time intervals after having solubilized it in PBS buffer (c=0.9 mg/ml) and kept at T=37° C.
FIG. 2 depicts the HPLC plot relative to the compound ^89Y-DOTA-BG (1a) solubilized in PBS buffer (c=0.9 mg/ml) and at T=37° C. time t=0 min (A), t=21 hours (B) and t=5 days (C). […]

N=C(N)NCc1cccc(C(=O)NCCNC(=O)CN2CCN(CC(=O)[O-])CCN(CC(=O)[O-])CCN(CC(=O)[O-])CC2)c1.[90Y+3] [compound 1]
loss of radioactivity (^90Y^3+) in favor of the protein fraction of serum [1]: no measurable loss of radioactivity

N=C(N)NCc1cccc(C(=O)NCCCNC(=O)CN2CCN(CC(=O)[O-])CCN(CC(=O)[O-])CCN(CC(=O)[O-])CC2)c1.[89Y+3] [10a′]
inhibition of the uptake/internalization of ^3H-NE (competition with ^3H-NE) ([2]; 50 nM ^3H-NE, 37° C.): dose-dependent inhibition | substrate of NET compared with MIBG [2]: substrate of NET analogously to MIBG, even though with lower power | substrate of NET compared with MIBG ([2]; listed as Formula III): substrates of NET analogously to MIBG | cytotoxic effects [3]: without dose-dependent cytotoxic effects | cytotoxic effects ([3]; listed as Formula III): without cytotoxic effects

N=C(N)NCc1cccc(C(=O)NCCNC(=O)CN2CCN(CC(=O)[O-])CCN(CC(=O)[O-])CCN(CC(=O)[O-])CC2)c1.[89Y+3] [1a]
IC50 ([2]; 50 nM ^3H-NE, 1 hour incubation, 37° C., read-out: inhibition of the ^3H-NE uptake IC50): ~10 µM | inhibition of the uptake/internalization of ^3H-NE (competition with ^3H-NE) ([2]; 50 nM ^3H-NE, 37° C.): dose-dependent inhibition | substrate of NET compared with MIBG [2]: substrate of NET analogously to MIBG, even though with lower power | chemical purity after 5 days ([4]; PBS buffer c=0.9 mg/ml, T=37° C., HPLC UV 214 nm, 5 days): higher than 99.5% | Area 1 (chromatographic peak of compound 1a) ([4]; time 0 min): 34.78 | Area (1 + 2) (peaks of compound 1a and impurity 2) ([4]; time 0 min): 35.13 | Area 1 (chromatographic peak of compound 1a) ([4]; time 30 min): 35.09 | Area (1 + 2) (peaks of compound 1a and impurity 2) ([4]; time 30 min): 35.29 | Area 1 (chromatographic peak of compound 1a) ([4]; time 1 hour 30 min): 35.07 | Area (1 + 2) (peaks of compound 1a and impurity 2) ([4]; time 1 hour 30 min): 35.30 | Area 1 (chromatographic peak of compound 1a) ([4]; time 5 hours): 35.13 | Area (1 + 2) (peaks of compound 1a and impurity 2) ([4]; time 5 hours): 35.40 | Area 1 (chromatographic peak of compound 1a) ([4]; time 21 hours): 37.15 | Area (1 + 2) (peaks of compound 1a and impurity 2) ([4]; time 21 hours): 37.45 | Area 1 (chromatographic peak of compound 1a) ([4]; time 5 days): 38.34 | Area (1 + 2) (peaks of compound 1a and impurity 2) ([4]; time 5 days): 38.65 | cytotoxic effects [3]: without dose-dependent cytotoxic effects

N=C(N)NCc1cccc(C(=O)NCCCCNC(=O)CN2CCN(CC(=O)[O-])CCN(CC(=O)[O-])CCN(CC(=O)[O-])CC2)c1.[90Y+3] [10b]
loss of radioactivity (^90Y^3+) in favor of the protein fraction of serum [1]: no measurable loss of radioactivity

N=C(N)NCc1cccc(C(=O)NCCCNC(=O)CN2CCN(CC(=O)[O-])CCN(CC(=O)[O-])CCN(CC(=O)[O-])CC2)c1.[90Y+3] [10a]
loss of radioactivity (^90Y^3+) in favor of the protein fraction of serum [1]: no measurable loss of radioactivity

N=C(N)NCc1cccc(I)c1 [MIBG, reference compound]
competition of positive control with ^3H-NE for the internalization ([2]; non-marked MIBG at 2 μM): compete with ^3H-NE for the internalization

NC[C@H](O)c1ccc(O)c(O)c1 [^1H-NE, reference compound]
competition of positive control with ^3H-NE for the internalization ([2]; non-marked ^1H-NE at 20 μM): compete with ^3H-NE for the internalization

N=C(N)NCc1cccc(C(=O)NCCCNC(=O)CN2CCN(CC(=O)O)CCN(CC(=O)O)CCN(CC(=O)O)CC2)c1 [13a, 2,2′,2″-(10-(2-((3-(3-(guanidinomethyl)benzamido)propyl)amino)-2-oxoethyl)-1,4,7,10-tetraazacyclododecane-1,4,7-triyl) triacetic acid]
inhibition of the uptake/internalization of ^3H-NE (competition with ^3H-NE) ([2]; 50 nM ^3H-NE, 37° C.): completely unable to compete

CC(CCNC(=O)CN1CCN(CC(=O)O)CCN(CC(=O)O)CCN(CC(=O)O)CC1)NC(=O)c1cccc(CNC(=N)N)c1 (stereo not drawn) [13b, 2,2′,2″-(10-(2-((3-(3-(guanidinomethyl)benzamido)butyl)amino)-2-oxoethyl)-1,4,7,10-tetraazacyclododecane-1,4,7-triyl) Triacetic Acid]
inhibition of the uptake/internalization of ^3H-NE (competition with ^3H-NE) ([2]; 50 nM ^3H-NE, 37° C.): completely unable to compete

N=C(N)NCc1cccc(C(=O)NCCNC(=O)CN2CCN(CC(=O)O)CCN(CC(=O)O)CCN(CC(=O)O)CC2)c1 [compound 9, 2,2′,2″-(10-(2-((2-(3-(guanidinomethyl)benzamido)ethyl)amino)-2-oxoethyl)-1,4,7,10-tetraazacyclododecane-1,4,7-triyl) triacetic acid]
inhibition of the uptake/internalization of ^3H-NE (competition with ^3H-NE) ([2]; 50 nM ^3H-NE, 37° C.): completely unable to compete
